Consider 33 compounds from patent US5256686A, “Phenylalkan(en)oic acid” (Ono Pharmaceutical Co., Ltd., priority 1989, dated 1993).

Molecules are shown by their SMILES.

This experiment deals with T1, human PMNL LTB4 receptor (Homo sapiens, UniProt Q15722).
T1 construct: endogenous in cells; host or cells: human polymorphonuclear leukocytes (PMNL), intact cells
T1 sequence (Q15722 whole entry): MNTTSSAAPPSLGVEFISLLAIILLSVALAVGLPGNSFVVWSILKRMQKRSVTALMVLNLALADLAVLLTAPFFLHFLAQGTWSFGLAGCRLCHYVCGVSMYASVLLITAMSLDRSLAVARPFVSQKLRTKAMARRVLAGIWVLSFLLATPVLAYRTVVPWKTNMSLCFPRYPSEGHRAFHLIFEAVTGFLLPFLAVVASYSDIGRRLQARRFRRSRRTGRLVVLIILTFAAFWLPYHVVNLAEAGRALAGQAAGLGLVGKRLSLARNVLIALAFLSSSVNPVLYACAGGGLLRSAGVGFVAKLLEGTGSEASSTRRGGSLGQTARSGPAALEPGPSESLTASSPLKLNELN
In words: Binding affinity of 3H-LTB4 antagonist to human PMNL LTB4 receptor (inhibition of specific 3H-LTB4 binding). Conditions: 1 nM 3H-LTB4, human PMNLs, 4° C., 20 min. As to the method: Human PMNLS (1×10^7 cells) were incubated with 1 nM ^3 H-LTB4 in Hanks balanced salt solution (1 ml) at 4° C. for 20 min. in the presence or absence of increasing concentrations of unlabeled LTB4 or various compounds. Free ^3 H-LTB4 was separated from PMNLs-bound ligands by vacuum filteration through Whatman GF/B or C glass fiber filters. The filters were then washed rapidly 4 times with 2.5 ml of the ice-cold phosphate buffered saline. The radioactivity retained in the filter was determined by liquid scintillation counting. Specific binding was defined as the difference between total binding and binding in the presence of 3 μM LTB4 (nonspecific binding). The inhibitory effect of specific ^3 H-LTB4 binding was calculated from the following equation.
The percentage of inhibition (%)=100-(B1 /B0 ×100)
B1 : specific ^3 H-LTB4 binding in presence of antagonist
B0 : specific ^3 H-LTB4 binding in absence of antagonist
A word on the IC50: it is the concentration that inhibits the measured activity by half. High values mean a need for much substance, low ones inhibition by little substance. For `CCCCCCCCCCCCOc1ccc(NC(=O)CCCC(=O)N(C)C)cc1CCC(=O)O` [1 (c), 3-[1-n-dodecyloxy-4-(4-dimethylaminocarbonylbutanamido)benzen-2-yl]propionic acid], the half-inhibitory concentration (IC50) was found to be 1000 nM. For the compound `CCCOc1ccc(/C=C/CCCCOc2ccc(NC(=O)CCCC(=O)N(C)C)cc2CCC(=O)O)cc1` [1 (e), 3-[1-[6-(4-n-propoxyphenyl)hex-5E-enyl]oxy-4-(4-dimethylaminocarbonylbutanamido)benzen-2-yl]propionic acid], the IC50 worked out at 80 nM. The result for `C=CCOc1ccc(/C=C/CCCCOc2ccc(NC(=O)CCCC(=O)N(C)C)cc2CCC(=O)O)cc1` [1 (f), 3-[1-[6-[4-(2-propenyl)oxyphenyl]hex-5E-enyl]oxy-4-(4-dimethylaminocarbonylbutanamido)benzen-2-yl]propionic acid] reads 50 nM; that for `CCCCCOc1ccc(/C=C/CCCCOc2ccc(NC(=O)CCCC(=O)N(C)C)cc2CCC(=O)O)cc1` [1 (i), 3-[1-[6-(4-n-pentyloxyphenyl)hex-5E-enyl]oxy-4-(4-dimethylaminocarbonylbutanamido)benzen-2-yl]propionic acid], 400 nM; that for `COc1ccc(CCCCCCOc2ccc(NC(=O)CCCC(=O)N(C)C)cc2CCC(=O)O)cc1` [1 (j), 3-[1-[6-(4-methoxyphenyl)-n-hexyl]oxy-4-(4-dimethylaminocarbonylbutanamido)benzen-2-yl]propionic acid], 200 nM.

Compound `COc1cccc(/C=C/CCCCOc2ccc(NC(=O)CCCC(=O)N(C)C)cc2CCC(=O)O)c1` [1 (m), 3-[1-[6-(3-methoxyphenyl)hex-5E-enyl]oxy-4-(4-dimethylaminocarbonylbutanamido)benzen-2-yl]propionic acid] returned an IC50 of 490 nM. For the compound `COc1ccc(/C=C/CCCCOc2ccc(NC(=O)CCCC(=O)N3CCc4ccccc43)cc2CCC(=O)O)cc1` [1 (n), 3-[1-[6-(4-methoxyphenyl)hex-5E-enyl]oxy-4-[4-(1-indolinyl)carbonylbutanamido]benzen-2-yl]propionic acid], the IC50 was found to be 70 nM. Turning to `CSc1ccc(/C=C/CCCCOc2ccc(NC(=O)CCCC(=O)N(C)C)cc2CCC(=O)O)cc1` [1 (q), 3-[1-[6-(4-methylthiophenyl)hex-5E-enyl]oxy-4-(4-dimethylaminocarbonylbutanamido)benzen-2-yl]propionic acid], the IC50 came to 50 nM. Consider `COc1ccc(/C=C/CCCCOc2ccc(NC(=O)CCCC(=O)N(C)C)cc2CCC(=O)O)cc1OC` [1 (r), 3-[1-[6-(3,4-dimethoxyphenyl)hex-5E-enyl]oxy-4-(4-dimethylaminocarbonylbutanamido)benzen-2-yl]propionic acid], for which the IC50 was 1100 nM. Take `Cc1ccc(/C=C/CCCCOc2ccc(NC(=O)CCCC(=O)N(C)C)cc2CCC(=O)O)cc1` [1 (s), 3-[1-[6-(4-methylphenyl)hex-5E-enyl]oxy-4-(4-dimethylaminocarbonylbutanamido)benzen-2-yl]propionic acid]: the half-maximal inhibitory concentration (IC50) is 170 nM. For the compound `CN(C)C(=O)CCCC(=O)Nc1ccc(OCCCC/C=C/c2ccc(Cl)cc2)c(CCC(=O)O)c1` [1 (t), 3-[1-[6-(4-chlorophenyl)hex-5E-enyl]oxy-4-(4-dimethylaminocarbonylbutanamido)benzen-2-yl]propionic acid], the half-maximal inhibitory concentration (IC50) came out at 220 nM.

Compound `COc1ccc(/C=C/CCCCOc2ccc(NC(=O)c3cccc(C(=O)N(C)C)c3)cc2CCC(=O)O)cc1` [1 (u), 3-[1-[6-(4-methoxyphenyl)hex-5E-enyl]oxy-4-(3-dimethylaminocarbonylbenzamido)benzen-2-yl]propionic acid] registered an IC50 of 80 nM. Compound `COc1ccc(/C=C/CCCCOc2ccc(NC(=O)CCCC(=O)O)cc2/C=C/C(=O)O)cc1` [2 (a), 3-[1-[6-(4-methoxyphenyl)hex-5E-enyl]oxy-4-(4-carboxylbutanamido)benzen-2-yl]-E-acrylic acid] gave an IC50 of 200 nM. Compared with the last compound, the IC50 is about 2.5-fold higher. `COc1ccc(/C=C/CCCCOc2ccc(NC(=O)c3ccccc3)cc2CCC(=O)O)cc1` [3 (a), 3-[1-[6-(4-methxoyphenyl)hex-5E-enyl]oxy-4-benzamidobenzen-2-yl]propionic acid] displayed an IC50 of 200 nM. `COc1ccc(/C=C/CCCCOc2ccc(NC(=O)c3cccc(CO)c3)cc2CCC(=O)O)cc1` [4 (b), 3-[1-[6-(4-methoxyphenyl)hex-5E-enyl]oxy-4-(3-hydroxymethylbenzamido)benzen-2yl]propionic acid] showed an IC50 of 60 nM. Compared with the last compound, the IC50 is about 3.3-fold lower. Compound `CCCCCC(O)/C=C/CCCCOc1ccc(NC(=O)CCCC(=O)N(C)C)cc1CCC(=O)O` (stereo not drawn) [5 (b), 3-[1-(5E-7-hydroxydodecenyl)oxy-4-dimethylaminocarbonylbutanamidobenzen-2-yl]propionic acid] returned a half-maximal inhibitory concentration (IC50) of 300 nM.

With `COc1ccc(CCC(O)/C=C/CCCCOc2ccc(NC(=O)CCCC(=O)N(C)C)cc2CCC(=O)O)cc1` (stereo not drawn) [5 (c), 3-[1-[5E-7-hydroxy-9-(4-methoxyphenyl)nonenyl]oxy-4-dimethylaminocarbonylbutanamidobenzen-2-yl]propionic acid], the concentration for half-maximal inhibition (IC50) is 700 nM.

For `CN(C)C(=O)CCCC(=O)Nc1ccc(OCCCC/C=C/C(O)C2CCCCC2)c(CCC(=O)O)c1` (stereo not drawn) [5 (e), 3-[1-(5E-7-hydroxy-7-cyclohexylheptenyl)oxy-4-dimethylaminocarbonylbutanamidobenzen-2-yl]propionic acid], the IC50 amounted to 350 nM. `COc1ccc(/C=C/CCCCOc2ccc(NS(C)(=O)=O)cc2CCC(=O)O)cc1` [6 (b), 3-[1-[6-(4-methoxyphenyl)hex-5E-enyl]oxy-4-methylsulfonylaminobenzen-2-yl]propionic acid] came in with an IC50 of 30 nM. With `COc1ccc(/C=C/CCCCOc2ccc(NS(=O)(=O)Cc3ccccc3)cc2CCC(=O)O)cc1` [6 (c), 3-[1-[6-(4-methoxyphenyl)hex-5E-enyl]oxy-4-benzylsulfonylaminobenzen-2-yl]propionic acid], the half-maximal inhibitory concentration (IC50) stood at 200 nM. The result for `COc1ccc(/C=C/CCCCOc2ccc(NS(=O)(=O)CCCC(=O)N(C)C)cc2CCC(=O)O)cc1` [7 (a), 3-[1-[6-(4-methoxyphenyl)hex-5E-enyl]oxy-4-(3-dimethylaminocarbonyl-n-propyl)sulfonylaminobenzen-2-yl]propionic acid] reads 30 nM; that for `COc1ccc(/C=C/CCCCOc2ccc(N(S(=O)(=O)Cc3ccccc3)S(=O)(=O)Cc3ccccc3)cc2CCC(=O)O)cc1` [10 (c), 3-[1-[6-(4-methoxyphenyl)hex-5E-enyl]oxy-4-bis(benzylsulfonyl)aminobenzen-2-yl]propionic acid], 1000 nM; that for `COc1ccc(/C=C/CCCCOc2ccc(N3C(=O)CCS3(=O)=O)cc2CCC(=O)O)cc1` [12 (b), 3-[1-[6-(4-methoxyphenyl)hex-5E-enyl]oxy-4-(isothiazolidin-1,1,3-trione-2-yl)benzen-2-yl]propionic acid], 6 nM. To `COc1ccc(CCCCCCOc2cccc(OCCCCC(=O)N(C)C)c2CCC(=O)O)cc1` [30 (b), 3-[1-[6-(4-methoxyphenyl)hexyl]oxy-3-(4-dimethylaminocarbonylbutyl)oxybenzen-2-yl]propionic acid] belongs 150 nM; to `COc1ccc(/C=C/CCCCOc2ccc(NC(=O)CCCC(=O)N3CCOCC3)cc2CCC(=O)O)cc1` [Example 1, 3-[1-[6-(4-methoxyphenyl)hex-5E-enyl]oxy-4-(5-oxo-5-morpholinopentanamido)benzen-2-yl]propionic acid], 130 nM.

Regarding `COc1ccc(/C=C/CCCCOc2ccc(NC(=O)CCCC(=O)O)cc2CCC(=O)O)cc1` [Example 2, 3-[1-[6-(4-methoxyphenyl)hex-5E-enyl]oxy-4-(4-carboxylbutanamido)benzen-2-yl]propionic acid], the IC50 is 40 nM.

Compound `CCCCCCC(=O)Nc1ccc(OCCCC/C=C/c2ccc(OC)cc2)c(CCC(=O)O)c1` [Example 3, 3-[1-[6-(4-methoxyphenyl)hex-5E-enyl]oxy-4-heptanamidobenzen-2-yl]propionicacid] displayed a concentration for half-maximal inhibition (IC50) of 170 nM. Take `COc1ccc(/C=C/CCCCOc2ccc(NC(=O)CCCCO)cc2CCC(=O)O)cc1` [Example 4, 3-[1-[6-(4-methoxyphenyl)hex-5E-enyl]oxy-4-(5-hydroxypentanamido)benzen-2-yl]propionic acid]: the IC50 worked out at 90 nM. `CCCCCCCCC(O)/C=C/CCCCOc1ccc(NC(=O)CCCC(=O)N(C)C)cc1CCC(=O)O` (stereo not drawn) [Example 5, 3-[1-(5E-7-hydroxypentadecenyl)oxy-4-(4-dimethylaminocarbonylbutanamido)benzen-2-yl]propionic acid] returned a concentration for half-maximal inhibition (IC50) of 20 nM.

`COc1ccc(CCCCCCOc2ccc(NS(=O)(=O)c3ccc(C)cc3)cc2CCC(=O)O)cc1` [Example 6, 3-[1-[6-(4-methoxyphenyl)hexyl]oxy-4-(4-methylphenyl)sulfonylaminobenzen-2-yl]propionic acid] showed a 50% inhibitory concentration (IC50) of 80 nM.

In the case of `COc1ccc(/C=C/CCCCOc2ccc(N(C(C)=O)S(C)(=O)=O)cc2CCC(=O)O)cc1` [Example 9, 3-[1-[6-(4-methoxyphenyl)hex-5E-enyl]oxy-4-(N-acetyl-N-mesyl)aminobenzen-2-yl]propionic acid], the IC50 amounted to 10 nM. The compound `COc1ccc(/C=C/CCCCOc2ccc(N(S(C)(=O)=O)S(C)(=O)=O)cc2CCC(=O)O)cc1` [Example 10, 3-[1-[6-(4-methoxyphenyl)hex-5E-enyl]oxy-4-dimesylaminobenzen-2-yl]propionic acid] displayed an IC50 of 13 nM. The compound `COc1ccc(/C=C/CCCCOc2ccc(N3C(=O)c4ccccc4C3=O)cc2CCC(=O)O)cc1` [Example 11, 3-[1-[6-(4-methoxyphenyl)hex-5E-enyl]oxy-4-phthalimidobenzen-2-yl]propionicacid] yielded a concentration for half-maximal inhibition (IC50) of 45 nM.
